Here are results for one compound from US9943398B2, “Increasing survival of free tissue grafts and flaps using phosphodiesterase type 5 (PDE5) inhibitors” (New York University, priority 2012, dated 2018).

Each structure is given as a SMILES string. A value given as a limit tells only on which side of the number the result lay.

Assay type in all cases: in vivo, mice
In experiment [1] the test system is explanted fat grafts (Tie2/LacZ donor, wild type FVB recipient). In words: Quantitative PCR of 2-day old explanted fat grafts after sildenafil pretreatment of donor tissue. Conditions: qPCR. As for the experimental part: (§1) To examine the effect of PDE5 inhibitor pretreatment of donor graft tissue on graft take and survival, transfer of syngeneic fat between Tie2/LacZ mice (donor) and wild type FVB mice (recipient) was performed. A schematic representation of the protocol is depicted in FIG. 1A. Since the transgenic mice express the lacZ gene in their blood vessels, donor and recipient vasculature can be independently visualized and assessed based on the presence or absence of lacZ gene expression.
Prior to harvesting the inguinal fat pads from 6-12 week old transgenic FVB Tie2/LacZ mice, the pads were infiltrated with small volumes of PBS (control) and 35 nM sildenafil citrate in PBS and allowed to dwell for 15-20 minutes. The pads were harvested, washed in PBS, and finely minced to simulate conditions of human harvest. The minced fat was centrifuged at 3000 rpm for 3 minutes and the aqueous and oil layers removed leaving the adipose layer for injection. The dorsum of syngeneic wildtype FVB mice was used as the recipient bed for the processed lipoaspirate, as previously described (Sultan et al., “Human Fat Grafting Alleviates Radiation Skin Damage in a Murine Model,” Plast Reconstr Surg 128:363-72 (2011) and Thanik et al., “A Murine Model for Studying Diffusely Injected Human Fat,” Plast Reconstr Surg 124:74-81 (2009), which are hereby incorporated by reference in their entirety). Autologous fat was infiltrated using a blunt tip cannula through a 2-mm caudal midline incision. The infiltration cannula was advanced and withdrawn in a fan like pattern in the dorsal subdermal plane of the mouse, to maintain an even layer over the entire dorsal surface.
A general note: Real-time PCR tracks product formation cycle by cycle.

The subject of experiment [2] is fat grafts. In words: Vascular flux (Doppler) in grafted fat tissue after transplantation. The protocol:
as §1
(§2) Prior to harvesting the inguinal fat pads from 6-12 week old transgenic FVB Tie2/LacZ mice, the pads were infiltrated with small volumes of PBS (control) and 35 nM sildenafil citrate in PBS and allowed to dwell for 15-20 minutes. The pads were harvested, washed in PBS, and finely minced to simulate conditions of human harvest. The minced fat was centrifuged at 3000 rpm for 3 minutes and the aqueous and oil layers removed leaving the adipose layer for injection. The dorsum of syngeneic wildtype FVB mice was used as the recipient bed for the processed lipoaspirate, as previously described (Sultan et al., “Human Fat Grafting Alleviates Radiation Skin Damage in a Murine Model,” Plast Reconstr Surg 128:363-72 (2011) and Thanik et al., “A Murine Model for Studying Diffusely Injected Human Fat,” Plast Reconstr Surg 124:74-81 (2009), which are hereby incorporated by reference in their entirety). […]

Experiment [3] relates to fat grafts. In words: Graft volume maintenance and graft survival analysis after fat transfer. As for the experimental part:
as §1, §2

The subject of experiment [4] is fat grafts. Kind of experiment: Graft weight retention of explanted fat grafts. Conditions: 8 weeks post transplant. The protocol:
as §1, §2

[5] abbreviates: 2-day old explanted grafts, 35 nM sildenafil citrate pretreatment vs PBS/saline control.
Where [6] appears, read: explanted tissue, sildenafil pretreatment vs saline control.

On to `CCCc1nn(C)c2c(=O)nc(-c3cc(S(=O)(=O)N4CCN(C)CC4)ccc3OCC)[nH]c12` [sildenafil, 5-{2-Ethoxy-5-[(4-methyl-1-piperazinyl)sulfonyl]phenyl}-1-methyl-3-propyl-1,4-dihydro-7H-pyrazolo[4,3-d]pyrimidin-7-one 2-hydroxy-1,2,3-propanetricarboxylate (1:1)], for which, in experiment [1] (setting [5]), the “LacZ expression (donor-derived endothelial cell function/viability)” value is recorded as “increased” and the “PECAM-1 expression (donor-derived endothelial cell function/viability)” value is recorded as “increased”. For the same compound, in experiment [1] (setting [6]), the “expression of the inflammatory gene SDF-1α” value was “decreased” and the “expression of the inflammatory gene VCAM” value was “decreased”. Also, the “revascularization within the core of the graft” value in the experiment on fat grafts [2] (1 and 2 weeks post grafting, vs control) is listed as “significant improvement in revascularization”. Moreover, the “restoration of blood flow within the grafted tissues (vascular flux)” value with fat grafts [2] (first two weeks following transplantation, vs saline control) was “faster restoration of blood flow”. Besides, the “graft tissue volume after transfer” value in the experiment with fat grafts [3] (over 12 weeks after transfer, vs saline treated grafts, which are resorbed quickly) was “maintained virtually all of its volume over time”. For the same compound, the graft survival entry with fat grafts [3] (survival analysis vs saline-treated control grafts and devascularized (trypsin-inactivated) grafts) is recorded as “survive significantly longer”. In addition, the “enhanced graft retention (percent graft weight retention) compared to saline treated grafts” value in the experiment on fat grafts [4] is over 2 fold.
